This is an account of results in US9919019B2, “Use of essential oil of oregano or of rosewood, or constituents thereof, in the cosmetic treatment of keratoses” (L'Oreal, priority 2010, dated 2018).

The subject of the data set is A431 cells. Kind of data set: Annexin V/propidium iodide (AV/PI) apoptosis test in A431 cells. It counts as cell-based, human. The settings on record: for death by targeted apoptosis of mutated cancer cells / cytotoxic efficacy compared with complex essential oils: 12 h; for death by targeted apoptosis of mutated cancer cells: A431 versus HEK001, concentrations equal to those present in the EO treatments (linalool 320 nL/mL, carvacrol 60 nL/mL, thymol 30 nL/mL); for cytotoxic efficacy compared with complex essential oils: equivalent dose; for apoptotic A431 cells: 12 h of treatment. As for the experimental part: These three molecules were incubated for 12 h with non-mutated immortalized keratinocytes (HEK001) and mutated cancerous keratinocytes (A431). The percentage of cells in apoptosis was measured by the annexin V/propidium iodide test. The concentrations of the molecules used were equal to those present during the treatments with the essential oils. Example: the concentration of linalool used here represents the equivalent of 80% of linalool present in the essential oil of rosewood.
Thirty six hours before the treatment, the cells were distributed into a 96-well plate (5×10^5 cells/mL).
EO treatment solution: the essential oils were diluted to 1/10th a first time in 100% ethanol. Next, a second dilution was carried out in culture medium in order to obtain the desired concentrations.
The AV/PI test can be used to detect this event because of the affinity of the protein annexin V for phosphatidyl-serine. Propidium iodide, which targets DNA, can be used to distinguish early apoptotic cells from cells in late apoptosis and/or in necrosis.
After the desired treatment time, the medium was eliminated, the cells were harvested (by trypsinization), centrifuged and rinsed in 4 mL of PBS 1×. Tagging was carried out following the instructions of the manufacturer (Kit Vybrant, Molecular Probe). The cells were rapidly taken up in 100 μl of tagging buffer, to which 6 μl of annexin V and 3 μg/mL of propidium iodide per sample was added. The cells were then incubated for 30 min in the dark (at ambient temperature). Four hundred μL of tagging buffer was added before measuring the fluorescence of the annexin V (at 530 nm) and of the propidium iodide (at 610 nm).

Molecules are shown by their SMILES.

`Cc1ccc(C(C)C)cc1O` [carvacrol]: the “death by targeted apoptosis of mutated cancer cells” value (shortened to “death by targeted apoptosis”) is “qualitatively conserved” and the “cytotoxic efficacy compared with complex essential oils” value was “lower than with complex essential oils”. The “apoptotic A431 cells” value (carvacrol 60 nL/mL) is listed as approximately 25%.
On to `C=CC(C)(O)CCC=C(C)C` (centres unmarked) [linalool], for which the “death by targeted apoptosis” value was “qualitatively conserved” and the “cytotoxic efficacy compared with complex essential oils” value is “lower than with complex essential oils”.
Regarding `Cc1ccc(C(C)C)c(O)c1` [thymol], the “death by targeted apoptosis” value is listed as “qualitatively conserved” and the “cytotoxic efficacy compared with complex essential oils” value is listed as “lower than with complex essential oils”. For the setting “thymol 30 nL/mL”, the “apoptotic A431 cells” value is “approximately 15%”.
